According to article PMC4503722, “Novel Phenotypic Outcomes Identified for a Public Collection of Approved Drugs from a Publicly Accessible Panel of Assays” (PLoS ONE, 2015):
Like-named read-outs stand apart in the source and are kept apart here.

Tests used:
[1] = test system: NCI-H716 cells; experiment: cells; assay type: cell-based, Human; settings: for IC50/EC50, hNCI-H716 GLP1 Secretion (assay number 12): concentration response; for EC50: Homo sapiens, NCI-H716, read-out: GLP 1 Secretion
[2] = test system: STC-1 cell line; assay type: cell-based, mouse; settings: for IC50/EC50, mSTC-1 GLP1 Secretion (assay number 13): concentration response
[3] = test system: SW480; experiment: cells; assay type: cell-based; settings: Homo sapiens, SW480, read-out: Basal_Viability ATP SW480
[4] = test system: INS-1E cells; experiment: cells; assay type: cell-based, rat; settings: Rattus norvegicus, INS-1E, read-out: Insulin Secretion
[5] = biological target: T1, hp70S6K1 (RPS6KB1) (Homo sapiens, UniProt P23443); experiment: Cerep LANCE kinase assay hp70S6K1 (S1 assay 31); assay type: biochemical; settings: read-out: p70S6K1
T1 construct: purchased Cerep (LANCE kinase assay platform, contract assay)

[6] = biological target: T2, hJAK2 (Homo sapiens, UniProt O60674); experiment: Cerep LANCE kinase assay hJAK2 (S1 assay 33); assay type: biochemical; settings: read-out: JAK2
T2 construct: purchased Cerep (LANCE kinase assay platform, contract assay)

[7] = test system: RKO; experiment: cells; assay type: cell-based; settings: Homo sapiens, RKO, read-out: Basal_Viability ATP RKO
[8] = test system: HCT116 cells treated with a GSK3β inhibitor; experiment: cells; assay type: cell-based; settings: Homo sapiens, HCT-116, read-out: GSK3b inh pretreated_Viability ATP HCT116
[9] = test system: Colo320; experiment: cells; assay type: cell-based; settings: Homo sapiens, COLO 320, read-out: Basal_Viability ATP Colo 320
[10] = test system: HCT116; experiment: cells; assay type: cell-based; settings: Homo sapiens, HCT-116, read-out: Basal_Viability ATP HCT116
[11] = test system: HeLa cells; experiment: cells; assay type: cell-based; settings: Homo sapiens, HeLa, read-out: CellCycle G2/M
[12] = test system: nuclear β-catenin in C2C12 cells; experiment: cells; assay type: cell-based; settings: Mus musculus, C2C12, read-out: Wnt Pathway
[13] = biological target: T3, hGSK3b (Homo sapiens, UniProt P49841); experiment: Cerep LANCE kinase assay hGSK3b (S1 assay 34); assay type: biochemical; settings: read-out: GSK3b
T3 construct: purchased Cerep (LANCE kinase assay platform, contract assay)

[14] = test system: endothelial tube formation in co-cultures of ECFCs and ADSCs treated with VEGF; experiment: cells; assay type: cell-based, human; settings: Homo sapiens, read-out: Anti-Angiogenesis
[15] = biological target: T4, hKDR (Homo sapiens, UniProt P35968); experiment: Cerep LANCE kinase assay hKDR (S1 assay 32); assay type: biochemical; settings: read-out: KDR
T4 construct: purchased Cerep (LANCE kinase assay platform, contract assay)

[16] = test system: SNU-C1; experiment: cells; assay type: cell-based; settings: Homo sapiens, SNU-C1, read-out: Basal_Viability ATP SNU-C1
[17] = test system: HT-29; experiment: cells; assay type: cell-based; settings: Homo sapiens, HT-29, read-out: Basal_Viability ATP HT-29
[18] = test system: DLD-1; experiment: cells; assay type: cell-based; settings: Homo sapiens, DLD-1, read-out: Basal_Viability ATP DLD-1
[19] = biological target: T5, hFLT3 (Homo sapiens, UniProt P36888); experiment: Cerep LANCE kinase assay hFLT3 (S1 assay 35); assay type: biochemical; settings: read-out: FLT3
T5 construct: purchased Cerep (LANCE kinase assay platform, contract assay)
T5 sequence (P36888 27-993): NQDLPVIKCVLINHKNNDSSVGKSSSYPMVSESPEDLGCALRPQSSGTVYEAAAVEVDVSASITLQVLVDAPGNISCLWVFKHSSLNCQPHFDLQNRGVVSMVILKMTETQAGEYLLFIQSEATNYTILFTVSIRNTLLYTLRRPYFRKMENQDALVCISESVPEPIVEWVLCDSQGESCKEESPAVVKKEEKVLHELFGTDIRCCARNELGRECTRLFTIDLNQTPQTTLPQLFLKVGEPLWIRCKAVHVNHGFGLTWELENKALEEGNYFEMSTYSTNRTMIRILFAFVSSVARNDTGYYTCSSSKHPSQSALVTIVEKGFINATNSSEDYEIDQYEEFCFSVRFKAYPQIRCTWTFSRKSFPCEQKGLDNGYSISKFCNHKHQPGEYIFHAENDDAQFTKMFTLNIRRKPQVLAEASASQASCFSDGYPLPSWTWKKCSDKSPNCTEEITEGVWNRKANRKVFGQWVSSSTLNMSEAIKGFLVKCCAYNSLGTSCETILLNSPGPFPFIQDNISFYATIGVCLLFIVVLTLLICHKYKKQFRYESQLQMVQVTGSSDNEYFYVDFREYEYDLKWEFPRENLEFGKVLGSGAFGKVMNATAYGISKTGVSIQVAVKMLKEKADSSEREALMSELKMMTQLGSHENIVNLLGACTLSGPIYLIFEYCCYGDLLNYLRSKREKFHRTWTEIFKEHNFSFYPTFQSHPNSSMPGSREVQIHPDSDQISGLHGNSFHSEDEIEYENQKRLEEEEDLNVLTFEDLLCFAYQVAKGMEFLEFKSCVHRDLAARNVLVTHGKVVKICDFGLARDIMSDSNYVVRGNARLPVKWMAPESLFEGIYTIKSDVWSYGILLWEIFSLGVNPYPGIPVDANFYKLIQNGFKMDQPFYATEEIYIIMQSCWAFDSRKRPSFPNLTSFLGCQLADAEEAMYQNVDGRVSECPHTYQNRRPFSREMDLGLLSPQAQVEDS

T1 sequence (P23443 whole entry): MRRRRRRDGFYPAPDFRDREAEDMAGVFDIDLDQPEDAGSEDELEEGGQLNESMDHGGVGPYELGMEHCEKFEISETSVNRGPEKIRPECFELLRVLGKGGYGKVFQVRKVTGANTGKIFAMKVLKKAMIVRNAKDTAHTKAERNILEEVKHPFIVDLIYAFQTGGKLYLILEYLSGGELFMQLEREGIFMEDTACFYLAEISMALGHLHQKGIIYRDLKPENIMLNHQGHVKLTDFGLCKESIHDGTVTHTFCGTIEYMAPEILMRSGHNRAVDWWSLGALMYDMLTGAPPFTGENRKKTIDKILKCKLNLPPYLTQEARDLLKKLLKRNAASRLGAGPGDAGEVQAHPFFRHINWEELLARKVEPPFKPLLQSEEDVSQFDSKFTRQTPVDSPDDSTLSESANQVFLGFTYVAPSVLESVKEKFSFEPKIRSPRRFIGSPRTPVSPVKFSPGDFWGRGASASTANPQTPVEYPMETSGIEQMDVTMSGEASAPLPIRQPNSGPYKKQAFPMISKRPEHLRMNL
T2 sequence (O60674 whole entry): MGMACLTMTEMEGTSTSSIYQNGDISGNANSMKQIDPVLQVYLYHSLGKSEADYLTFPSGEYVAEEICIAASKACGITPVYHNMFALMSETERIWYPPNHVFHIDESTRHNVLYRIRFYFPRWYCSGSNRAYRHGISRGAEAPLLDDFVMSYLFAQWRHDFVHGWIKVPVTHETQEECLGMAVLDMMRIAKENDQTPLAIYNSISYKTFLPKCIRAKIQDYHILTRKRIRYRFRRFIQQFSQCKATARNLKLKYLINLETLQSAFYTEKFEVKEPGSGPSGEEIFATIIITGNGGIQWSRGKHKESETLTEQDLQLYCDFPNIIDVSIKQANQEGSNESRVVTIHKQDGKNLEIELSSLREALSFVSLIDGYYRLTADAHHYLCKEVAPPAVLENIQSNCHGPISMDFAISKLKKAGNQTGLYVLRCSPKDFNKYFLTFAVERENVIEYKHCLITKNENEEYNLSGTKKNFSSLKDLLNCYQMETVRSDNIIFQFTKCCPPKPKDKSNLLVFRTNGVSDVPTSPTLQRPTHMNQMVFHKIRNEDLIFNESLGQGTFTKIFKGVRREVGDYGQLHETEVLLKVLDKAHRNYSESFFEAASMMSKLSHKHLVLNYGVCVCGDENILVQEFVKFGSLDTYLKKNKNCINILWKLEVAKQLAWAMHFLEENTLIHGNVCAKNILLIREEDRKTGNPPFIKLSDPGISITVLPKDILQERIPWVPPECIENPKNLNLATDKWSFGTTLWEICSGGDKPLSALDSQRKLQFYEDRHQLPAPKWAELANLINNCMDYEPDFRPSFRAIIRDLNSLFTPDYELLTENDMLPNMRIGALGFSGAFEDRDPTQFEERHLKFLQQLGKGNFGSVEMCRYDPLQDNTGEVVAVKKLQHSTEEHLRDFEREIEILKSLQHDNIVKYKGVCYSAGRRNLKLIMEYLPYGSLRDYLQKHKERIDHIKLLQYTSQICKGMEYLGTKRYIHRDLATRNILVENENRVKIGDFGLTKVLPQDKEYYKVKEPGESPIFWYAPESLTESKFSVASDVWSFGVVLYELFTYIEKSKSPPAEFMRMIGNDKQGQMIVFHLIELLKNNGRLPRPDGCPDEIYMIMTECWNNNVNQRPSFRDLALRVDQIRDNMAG
T3 sequence (P49841 whole entry): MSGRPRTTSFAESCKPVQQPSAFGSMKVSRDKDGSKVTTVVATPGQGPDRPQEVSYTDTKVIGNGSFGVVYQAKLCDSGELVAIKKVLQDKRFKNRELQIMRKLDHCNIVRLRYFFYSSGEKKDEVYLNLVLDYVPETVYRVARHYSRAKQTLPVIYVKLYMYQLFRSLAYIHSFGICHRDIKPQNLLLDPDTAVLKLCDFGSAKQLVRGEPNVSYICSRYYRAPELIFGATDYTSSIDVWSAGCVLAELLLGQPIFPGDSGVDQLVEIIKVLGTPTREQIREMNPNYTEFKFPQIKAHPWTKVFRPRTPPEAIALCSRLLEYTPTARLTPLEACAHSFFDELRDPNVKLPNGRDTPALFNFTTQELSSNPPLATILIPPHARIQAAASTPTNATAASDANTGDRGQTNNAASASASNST
T4 sequence (P35968 20-1356): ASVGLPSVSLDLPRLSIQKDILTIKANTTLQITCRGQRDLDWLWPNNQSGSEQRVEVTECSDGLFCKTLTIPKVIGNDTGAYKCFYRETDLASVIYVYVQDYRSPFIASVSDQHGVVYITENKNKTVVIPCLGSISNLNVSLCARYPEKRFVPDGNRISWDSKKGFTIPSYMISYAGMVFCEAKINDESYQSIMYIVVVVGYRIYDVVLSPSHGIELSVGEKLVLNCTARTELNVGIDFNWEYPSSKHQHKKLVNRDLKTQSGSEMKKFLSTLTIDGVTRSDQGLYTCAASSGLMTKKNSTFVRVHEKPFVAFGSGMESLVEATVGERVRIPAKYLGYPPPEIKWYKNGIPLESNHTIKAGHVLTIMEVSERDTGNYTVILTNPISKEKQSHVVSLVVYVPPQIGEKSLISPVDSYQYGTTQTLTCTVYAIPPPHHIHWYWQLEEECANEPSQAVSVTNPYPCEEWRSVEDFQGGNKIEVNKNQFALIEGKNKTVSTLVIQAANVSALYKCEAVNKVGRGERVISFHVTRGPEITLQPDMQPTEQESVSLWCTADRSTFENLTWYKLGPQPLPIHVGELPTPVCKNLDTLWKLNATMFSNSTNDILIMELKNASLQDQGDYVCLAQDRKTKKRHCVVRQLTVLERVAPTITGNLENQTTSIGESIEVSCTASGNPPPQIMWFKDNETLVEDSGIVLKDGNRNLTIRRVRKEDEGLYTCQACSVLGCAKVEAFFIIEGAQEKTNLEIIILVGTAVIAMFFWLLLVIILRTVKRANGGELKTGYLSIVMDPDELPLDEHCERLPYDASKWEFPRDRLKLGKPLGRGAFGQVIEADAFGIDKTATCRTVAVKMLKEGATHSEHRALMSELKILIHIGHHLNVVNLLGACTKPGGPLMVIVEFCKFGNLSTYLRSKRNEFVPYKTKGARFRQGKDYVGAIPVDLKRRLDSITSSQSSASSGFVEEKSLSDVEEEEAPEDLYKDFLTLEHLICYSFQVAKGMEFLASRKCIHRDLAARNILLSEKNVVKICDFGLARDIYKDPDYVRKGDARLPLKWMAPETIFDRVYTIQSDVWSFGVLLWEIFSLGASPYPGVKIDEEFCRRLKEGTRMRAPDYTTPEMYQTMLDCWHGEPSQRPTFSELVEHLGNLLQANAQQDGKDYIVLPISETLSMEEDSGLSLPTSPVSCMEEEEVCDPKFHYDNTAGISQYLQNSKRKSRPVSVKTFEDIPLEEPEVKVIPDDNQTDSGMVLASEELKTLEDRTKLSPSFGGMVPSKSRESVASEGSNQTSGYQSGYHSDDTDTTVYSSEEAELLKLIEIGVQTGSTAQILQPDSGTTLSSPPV

C#C[C@]1(O)CC[C@H]2[C@@H]3CCC4=CCCC[C@@H]4[C@H]3CC[C@@]21C [NCGC00179676-03]
hNCI-H716 GLP1 Secretion IC50/EC50 ([1]; assay number 12): 27521.1 nM
mSTC-1 GLP1 Secretion IC50/EC50 ([2]; assay number 13): > 40000 nM

CC(=O)NO [NCGC00094576-05]
hNCI-H716 GLP1 Secretion IC50/EC50 ([1]; assay number 12): > 40000 nM
mSTC-1 GLP1 Secretion IC50/EC50 ([2]; assay number 13): > 40000 nM

CCCOC(C(=O)OC1CCN(C)CC1)(c1ccccc1)c1ccccc1.Cl [NCGC00181103-02]
hNCI-H716 GLP1 Secretion IC50/EC50 ([1]; assay number 12): > 40000 nM
mSTC-1 GLP1 Secretion IC50/EC50 ([2]; assay number 13): 23817.7 nM

C/C=C(/C(=C/C)c1ccc(O)cc1)c1ccc(O)cc1 [NCGC00018153-10]
IC50/EC50, hNCI-H716 GLP1 Secretion (assay number 12) [1]: > 40000 nM
IC50/EC50, mSTC-1 GLP1 Secretion (assay number 13) [2]: > 40000 nM

CC(C)(Oc1ccc(C2CC2(Cl)Cl)cc1)C(=O)O (stereo not drawn) [NCGC00015202-08]
hNCI-H716 GLP1 Secretion IC50/EC50 ([1]; assay number 12): > 40000 nM
mSTC-1 GLP1 Secretion IC50/EC50 ([2]; assay number 13): > 40000 nM

CN[C@@H]1[C@H](O)[C@H](NC)[C@H]2O[C@@]3(O)C(=O)C[C@@H](C)O[C@H]3O[C@@H]2[C@H]1O.Cl.Cl [NCGC00017354-07]
hNCI-H716 GLP1 Secretion IC50/EC50 ([1]; assay number 12): > 40000 nM
mSTC-1 GLP1 Secretion IC50/EC50 ([2]; assay number 13): > 40000 nM

CC(C)(O)c1ccccc1CC[C@@H](SCC1(CC(=O)[O-])CC1)c1cccc(/C=C/c2ccc3ccc(Cl)cc3n2)c1.[Na+] [NCGC00164568-04]
hNCI-H716 GLP1 Secretion IC50/EC50 ([1]; assay number 12): 20710.1 nM
mSTC-1 GLP1 Secretion IC50/EC50 ([2]; assay number 13): > 40000 nM

Cc1nnc2n1-c1sc(CCc3ccc(CC(C)C)cc3)cc1C(c1ccccc1Cl)=NC2C (stereo not drawn) [NCGC00183008-01]
hNCI-H716 GLP1 Secretion IC50/EC50 ([1]; assay number 12): 24677.9 nM
mSTC-1 GLP1 Secretion IC50/EC50 ([2]; assay number 13): > 40000 nM

c1ccc2ccccc2c1 [NCGC00090793-05]
hNCI-H716 GLP1 Secretion IC50/EC50 ([1]; assay number 12): 20768.5 nM
mSTC-1 GLP1 Secretion IC50/EC50 ([2]; assay number 13): > 40000 nM

CN(C(=O)CN(CCO)CC(=O)N(C)C(C)(C)Cc1ccccc1)C(C)(C)Cc1ccccc1 [NCGC00016382-07]
IC50/EC50, hNCI-H716 GLP1 Secretion (assay number 12) [1]: 25051.5 nM
IC50/EC50, mSTC-1 GLP1 Secretion (assay number 13) [2]: > 40000 nM

CCCSc1ccc2nc(NC(=O)OC)[nH]c2c1 [Albendazole]
IC50 [3]: > 20000 nM
EC50 [4]: > 10000 nM
IC50 [5]: > 20000 nM
IC50 [6]: > 20000 nM
IC50 [7]: 165 nM
IC50 [8]: 154 nM
IC50 [9]: 502 nM
IC50 [10]: 85.2 nM
EC50 [1]: > 10000 nM
EC50 [11]: 61.2 nM
EC50 [12]: 1280 nM
IC50 [13]: > 20000 nM
IC50 [14]: 355 nM
IC50 [15]: > 20000 nM
IC50 [16]: > 20000 nM
IC50 [17]: > 20000 nM
IC50 [18]: 108 nM
IC50 [19]: > 20000 nM

O=c1[nH]c(=O)n([C@H]2C[C@H](O)[C@@H](CO)O2)cc1F [Floxuridine]
IC50 [3]: > 20000 nM
EC50 [4]: > 10000 nM
IC50 ([5]; kinase assay): > 20000 nM
IC50 ([6]; kinase assay): > 20000 nM
IC50 [7]: 1 nM
IC50 [8]: 1 nM
IC50 [9]: > 20000 nM
IC50 [10]: 1 nM
EC50 [1]: > 10000 nM
EC50 [11]: > 10000 nM
EC50 [12]: > 10000 nM
IC50 ([13]; kinase assay): > 20000 nM
IC50 [14]: 21.6 nM
IC50 ([15]; kinase assay): > 20000 nM
IC50 [16]: > 20000 nM
IC50 [17]: > 20000 nM
IC50 [18]: 1 nM
IC50 ([19]; kinase assay): > 20000 nM

O=c1oc2ccccc2c(O)c1C(CC(O)c1ccc(-c2ccc(Br)cc2)cc1)c1ccccc1 (stereo not drawn) [NCGC00163939-02]
hNCI-H716 GLP1 Secretion IC50/EC50 [1]: > 40000 nM
mSTC-1 GLP1 Secretion IC50/EC50 [2]: 9160.9 nM

Nc1nc2nc[nH]c2c(=S)[nH]1 [Tioguanine]
IC50 [3]: 402 nM
EC50 [4]: > 10000 nM
IC50 ([5]; kinase assay): > 20000 nM
IC50 ([6]; kinase assay): > 20000 nM
IC50 [7]: 343 nM
IC50 [8]: 163 nM
IC50 [9]: 373 nM
IC50 [10]: 139 nM
EC50 [1]: > 10000 nM
EC50 [11]: > 10000 nM
EC50 [12]: > 10000 nM
IC50 ([13]; kinase assay): > 20000 nM
IC50 [14]: 622 nM
IC50 ([15]; kinase assay): > 20000 nM
IC50 [16]: 4400 nM
IC50 [17]: 49.3 nM
IC50 [18]: 108 nM
IC50 ([19]; kinase assay): > 20000 nM

Cc1c(NC(C)C)c(=O)n(-c2ccccc2)n1C [NCGC00016735-06]
hNCI-H716 GLP1 Secretion IC50/EC50 ([1]; assay number 12): > 40000 nM
mSTC-1 GLP1 Secretion IC50/EC50 ([2]; assay number 13): > 40000 nM

O=C(O)c1ccc(-n2nc(-c3ccccc3O)nc2-c2ccccc2O)cc1 [deferasirox]
IC50 [3]: 77.6 nM
EC50 [4]: > 10000 nM
IC50 [5]: > 20000 nM
IC50 [6]: 18200 nM
IC50 [7]: 100 nM
IC50 [8]: 242 nM
IC50 [9]: 409 nM
IC50 [10]: 438 nM
EC50 [1]: > 10000 nM
EC50 [11]: > 10000 nM
EC50 [12]: > 10000 nM
IC50 [13]: > 20000 nM
IC50 [14]: 2090 nM
IC50 [15]: > 20000 nM
IC50 [16]: 233 nM
IC50 [17]: 516 nM
IC50 [18]: 651 nM
IC50 [19]: > 20000 nM

Oc1c(I)cc(I)c2cccnc12 [Diiodohydroxyquinoline]
IC50 [3]: 3.6 nM
EC50 [4]: > 10000 nM
IC50 ([5]; kinase assay): > 20000 nM
IC50 ([6]; kinase assay): > 20000 nM
IC50 [7]: 22.7 nM
IC50 [8]: 66.7 nM
IC50 [9]: 21.3 nM
IC50 [10]: 41 nM
EC50 [1]: > 10000 nM
EC50 [11]: > 10000 nM
EC50 [12]: > 10000 nM
IC50 ([13]; kinase assay): > 20000 nM
IC50 [14]: 2390 nM
IC50 ([15]; kinase assay): > 20000 nM
IC50 [16]: 38.7 nM
IC50 [17]: 705 nM
IC50 [18]: 17.8 nM
IC50 ([19]; kinase assay): > 20000 nM
